In patent publication US9315490B2, “2,5-substituted pyrimidines” (Grünenthal GmbH, priority 2014, dated 2016) one finds inhibition data, which are given here for 24 compounds.

Molecules are shown by their SMILES.

By inhibition is commonly meant the drop in the measured response relative to a control, in per cent.

T1 sequence (Q07343 whole entry): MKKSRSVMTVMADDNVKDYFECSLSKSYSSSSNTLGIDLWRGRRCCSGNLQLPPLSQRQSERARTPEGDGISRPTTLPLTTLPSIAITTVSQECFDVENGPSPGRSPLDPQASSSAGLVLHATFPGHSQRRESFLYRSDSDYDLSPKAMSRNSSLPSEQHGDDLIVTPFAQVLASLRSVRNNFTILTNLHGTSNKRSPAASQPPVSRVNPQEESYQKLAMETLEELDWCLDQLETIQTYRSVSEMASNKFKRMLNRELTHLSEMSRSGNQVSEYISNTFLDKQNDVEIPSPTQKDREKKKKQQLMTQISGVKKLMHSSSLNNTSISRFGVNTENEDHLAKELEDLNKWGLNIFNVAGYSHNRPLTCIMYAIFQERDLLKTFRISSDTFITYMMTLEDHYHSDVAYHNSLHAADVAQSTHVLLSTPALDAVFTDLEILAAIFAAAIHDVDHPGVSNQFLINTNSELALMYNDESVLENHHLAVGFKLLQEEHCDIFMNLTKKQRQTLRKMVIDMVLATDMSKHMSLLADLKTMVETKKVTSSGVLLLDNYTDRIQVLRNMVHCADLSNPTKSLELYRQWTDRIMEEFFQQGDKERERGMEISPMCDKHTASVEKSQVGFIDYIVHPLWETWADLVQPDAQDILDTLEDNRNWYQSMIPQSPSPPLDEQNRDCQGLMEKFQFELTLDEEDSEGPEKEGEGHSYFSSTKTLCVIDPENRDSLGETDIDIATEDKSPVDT

The experiment addresses T1, human PDE4B1 (Homo sapiens, UniProt Q07343).
T1 construct: host or cells: Sf9 cells
Put plainly: cAMP HTRF assay to determine the activity of hPDE4B1. The format is biochemical. Particulars: inhibition of PDE4B at a test concentration of 1 μM. How it is done: Biological Testing cAMP HTRF® Assay to Determine the Activity of hPDE4B1
The inhibiting effect of the compounds on the enzyme activity of human PDE4B1 was measured by the quantification of 5′-adenosine monophosphate (5′-AMP), which is formed from 3′,5′-cyclic adenosine monophosphate (cAMP). Human recombinant enzyme, expressed in Sf9 cells, and the HTRF (homogeneous time-resolved fluorescence) detection method were used in the assay.
The test compound or water (control) was mixed with the human recombinant PDE4B1 enzyme (4.8 U) in a buffer consisting of 44.4 mM tris-HCl, 5.28 mM MgCl2, 2.64 mM DTT and 0.044% Tween 20 (pH 7.8). After adding the cAMP enzyme substrate (final concentration 40 nM), the mixture was incubated for 30 minutes at room temperature. Then a fluorescence acceptor (Dye2 marked with cAMP), a fluorescence donor (anti-cAMP antibody marked with a europium cryptate) and the non-specific phosphodiesterase inhibitor IBMX (3-isobutyl-1-methylxanthine; final concentration 1 mM) were added. After 60 minutes the fluorescence transfer, which correlates with the amount of remaining cAMP, was measured with a microplate reader (Rubystar, BMG) at λex=337 nm, λem=620 nm and λem=665 nm. The enzyme activity was calculated from the quotient formed from the measured signal at 665 nm and that at 620 nm. The result was expressed as the percentage inhibition of enzyme activity of the control (without PDE4 inhibitor). The enzyme was omitted for measurement of the basal control. IC50 values (IC50=concentration causing a half-maximal inhibition of control specific activity) were derived from dose response measurements with eight different concentrations (n=2; N=1-3).
Literature: N. Saldou et al., Comparison of recombinant human PDE4 isoforms: interaction with substrate and inhibitors, Cell. Signal. Vol. 10, No. 6, 427-440, 1998
For `C[S+]([O-])c1cn(-c2ncc(-c3ccccc3F)cn2)c2cc(C(=O)N3CCOCC3)ccc12` (stereo not drawn) [Example 1, (1-(5-(2-fluorophenyl)pyrimidin-2-yl)-3-(methylsulfinyl)-1H-indol-6-yl)(morpholino)methanone], the inhibition at 1 µM was determined as 104%.

`C[S+]([O-])c1cn(-c2ncc(-c3ccc(C(N)=O)cc3F)cn2)c2cc(C(=O)N3CCNCC3)ccc12` (stereo not drawn) [Example 15, 3-Fluoro-4-(2-(3-(methylsulfinyl)-6-(piperazine-1-carbonyl)-1H-indol-1-yl)pyrimidin-5-yl)benzamide]: the inhibition at 1 µM worked out at 44%.

For the compound `CS(=O)(=O)c1cn(-c2ncc(-c3ccccc3)cn2)c2cc(C(=O)N3CCNCC3)ccc12` [Example 21, (3-(Methylsulfonyl)-1-(5-phenylpyrimidin-2-yl)-1H-indol-6-yl)(piperazin-1-yl)methanone], the inhibition at 1 µM was 32%.

With `CC(O)c1cn(-c2ncc(-c3ccccc3F)cn2)c2cc(C(=O)N3CCOCC3)ccc12` (stereo not drawn) [Example 28, (1-(5-(2-fluorophenyl)pyrimidin-2-yl)-3-(1-hydroxyethyl)-1H-indol-6-yl)(morpholino)methanone], the inhibition at 1 µM was determined as 98%.

Consider `C[S+]([O-])c1cn(-c2ncc(-c3cccc(F)c3F)cn2)c2cc(C(=O)N3CCOCC3)ccc12` (stereo not drawn) [Example 30, (1-(5-(2,3-Difluorophenyl)pyrimidin-2-yl)-3-(methylsulfinyl)-1H-indol-6-yl)(morpholino)methanone], for which the inhibition at 1 µM was 106%.

On to `C[S+]([O-])c1cn(-c2ncc(-c3ccc(C#N)cc3)cn2)c2cc(C(=O)N3CCOCC3)ccc12` (stereo not drawn) [Example 31, 4-(2-(3-(Methylsulfinyl)-6-(morpholine-4-carbonyl)-1H-indol-1-yl)pyrimidin-5-yl)benzonitrile], for which the inhibition at 1 µM was 75%.

In the case of `C[S+]([O-])c1cn(-c2ncc(-c3ccc(F)cc3)cn2)c2cc(C(=O)N3CCOCC3)ccc12` (stereo not drawn) [Example 32, (1-(5-(4-Fluorophenyl)pyrimidin-2-yl)-3-(methylsulfinyl)-1H-indol-6-yl)(morpholino)methanone], the inhibition at 1 µM is 80%.

As for `COc1ccc(-c2cnc(-n3cc([S+](C)[O-])c4ccc(C(=O)N5CCOCC5)cc43)nc2)cc1` (stereo not drawn) [Example 33, (1-(5-(4-Methoxyphenyl)pyrimidin-2-yl)-3-(methylsulfinyl)-1H-indol-6-yl)(morpholino)methanone], the inhibition at 1 µM came out at 88%.

On to `C[S+]([O-])c1cn(-c2ncc(-c3cccc(F)c3)cn2)c2cc(C(=O)N3CCOCC3)ccc12` (stereo not drawn) [Example 34, (1-(5-(3-Fluorophenyl)pyrimidin-2-yl)-3-(methylsulfinyl)-1H-indol-6-yl)(morpholino)methanone], for which the inhibition at 1 µM was 90%.

In the case of `C[S+]([O-])c1cn(-c2ncc(-c3cccc(C(N)=O)c3)cn2)c2cc(C(=O)N3CCOCC3)ccc12` (stereo not drawn) [Example 35, 3-(2-(3-(Methylsulfinyl)-6-(morpholine-4-carbonyl)-1H-indol-1-yl)pyrimidin-5-yl)benzamide], the inhibition at 1 µM came to 67%.

As to `C[S+]([O-])c1cn(-c2ncc(-c3cccc(S(C)(=O)=O)c3)cn2)c2cc(C(=O)N3CCOCC3)ccc12` (stereo not drawn) [Example 36, (3-(Methylsulfinyl)-1-(5-(3-(methylsulfonyl)phenyl)pyrimidin-2-yl)-1H-indol-6-yl)(morpholino)methanone], the inhibition at 1 µM was 90%.

For `Cc1cccc(-c2cnc(-n3cc([S+](C)[O-])c4ccc(C(=O)N5CCOCC5)cc43)nc2)c1` (stereo not drawn) [Example 37, (3-(Methylsulfinyl)-1-(5-(m-tolyl)pyrimidin-2-yl)-1H-indol-6-yl)(morpholino)methanone], the inhibition at 1 µM came to 103%.

Regarding `COc1ccc(F)c(-c2cnc(-n3cc([S+](C)[O-])c4ccc(C(=O)N5CCOCC5)cc43)nc2)c1` (stereo not drawn) [Example 38, (1-(5-(2-Fluoro-5-methoxyphenyl)pyrimidin-2-yl)-3-(methylsulfinyl)-1H-indol-6-yl)(morpholino)methanone], the inhibition at 1 µM worked out at 102%.

On to `COc1ccc(-c2cnc(-n3cc([S+](C)[O-])c4ccc(C(=O)N5CCOCC5)cc43)nc2)c(F)c1` (stereo not drawn) [Example 39, (1-(5-(2-Fluoro-4-methoxyphenyl)pyrimidin-2-yl)-3-(methylsulfinyl)-1H-indol-6-yl)(morpholino)methanone], for which the inhibition at 1 µM is 105%.

Take `C[S+]([O-])c1cn(-c2ncc(-c3cccc(C#N)c3)cn2)c2cc(C(=O)N3CCOCC3)ccc12` (stereo not drawn) [Example 40, 3-(2-(3-(Methylsulfinyl)-6-(morpholine-4-carbonyl)-1H-indol-1-yl)pyrimidin-5-yl)benzonitrile]: the inhibition at 1 µM is 93%.

In the case of `C[S+]([O-])c1cn(-c2ncc(-c3cc(O)ccc3F)cn2)c2cc(C(=O)N3CCOCC3)ccc12` (stereo not drawn) [Example 41, (1-(5-(2-Fluoro-5-hydroxyphenyl)pyrimidin-2-yl)-3-(methylsulfinyl)-1H-indol-6-yl)(morpholino)methanone], the inhibition at 1 µM came to 100%.

For `C[S+]([O-])c1cn(-c2ncc(-c3ccc(C(N)=O)cc3)cn2)c2cc(C(=O)N3CCOCC3)ccc12` (stereo not drawn) [Example 42, 4-(2-(3-(Methylsulfinyl)-6-(morpholine-4-carbonyl)-1H-indol-1-yl)pyrimidin-5-yl)benzamide], the inhibition at 1 µM was determined as 86%.

As for `C[S+]([O-])c1cn(-c2ncc(-c3cc(C(N)=O)ccc3F)cn2)c2cc(C(=O)N3CCOCC3)ccc12` (stereo not drawn) [Example 43, 4-Fluoro-3-(2-(3-(methylsulfinyl)-6-(morpholine-4-carbonyl)-1H-indol-1-yl)pyrimidin-5-yl)benzamide], the inhibition at 1 µM turned out to be 83%.

Regarding `C[S+]([O-])c1cn(-c2ncc(-c3c(F)cccc3F)cn2)c2cc(C(=O)N3CCOCC3)ccc12` (stereo not drawn) [Example 44, (1-(5-(2,6-Difluorophenyl)pyrimidin-2-yl)-3-(methylsulfinyl)-1H-indol-6-yl)(morpholino)methanone], the inhibition at 1 µM came out at 82%.

For the compound `COc1cccc(-c2cnc(-n3cc([S+](C)[O-])c4ccc(C(=O)N5CCOCC5)cc43)nc2)c1` (stereo not drawn) [Example 45, (1-(5-(3-Methoxyphenyl)pyrimidin-2-yl)-3-(methylsulfinyl)-1H-indol-6-yl)(morpholino)methanone], the inhibition at 1 µM amounted to 115%.

On to `Cc1ccc(-c2cnc(-n3cc([S+](C)[O-])c4ccc(C(=O)N5CCOCC5)cc43)nc2)cc1` (stereo not drawn) [Example 46, (3-(Methylsulfinyl)-1-(5-(p-tolyl)pyrimidin-2-yl)-1H-indol-6-yl)(morpholino)methanone], for which the inhibition at 1 µM came to 102%.

For `C[S+]([O-])c1cn(-c2ncc(-c3ccncc3)cn2)c2cc(C(=O)N3CCOCC3)ccc12` (stereo not drawn) [Example 47, (3-(Methylsulfinyl)-1-(5-(pyridin-4-yl)pyrimidin-2-yl)-1H-indol-6-yl)(morpholino)methanone], the inhibition at 1 µM was determined as 61%.

For the compound `C[S+]([O-])c1cn(-c2ncc(-c3cccnc3F)cn2)c2cc(C(=O)N3CCOCC3)ccc12` (stereo not drawn) [Example 48, (1-(5-(2-Fluoropyridin-3-yl)pyrimidin-2-yl)-3-(methylsulfinyl)-1H-indol-6-yl)(morpholino)methanone], the inhibition at 1 µM is 63%.

Turning to `C[S+]([O-])c1cn(-c2ncc(-c3cccnc3)cn2)c2cc(C(=O)N3CCOCC3)ccc12` (stereo not drawn) [Example 49, (3-(Methylsulfinyl)-1-(5-(pyridin-3-yl)pyrimidin-2-yl)-1H-indol-6-yl)(morpholino)methanone], the inhibition at 1 µM came out at 72%.
